Results reported in article PMC11768771, “Identification of a New Pentafluorosulfanyl-Substituted Chalcone with Activity Against Hepatoma and Human Parasites” (Pharmaceuticals, 2025).
“Also recorded” adds a separate entry of the source. Read-outs that look alike come from different tables or passages of the source.

Columns and labels:
[1] = test system: HepG2; test: Antiproliferative activity, crystal violet assay; format: cell-based; conditions: Homo sapiens, HepG2, 48 h, mean ± SD
Protocol: (§3) Human hepatocellular carcinoma cell lines HepG2 (ATCC number: HB-8065) and HuH-7 (JCRB number: JCRB0403) were cultured at Roswell Park Memorial Institute (RPMI) 1640 Medium (Gibco, Thermo Fisher Scientific, Waltham, MA, USA) supplemented with 10% fetal bovine serum, 2 mM L-glutamine (Corning, Glendale, CA, USA), 100 U/mL penicillin and 100 µg/mL streptomycin (Bio&SELL, Feucht, Germany) at 37 °C, 5% CO2 in a humidified atmosphere in an incubator.
(§4) Treatment-induced antiproliferative effects measured as a decrease in cell number were assessed by crystal violet (N-hexamethylpararosaniline from Sigma-Aldrich, Darmstadt, Germany) staining as described before [71, 88]. In brief, HepG2 and HuH-7 cells were seeded in 96-well plates and allowed to adhere to the bottom of the wells and grow for 72 h in an incubator (37 °C, 5% CO2, humidified atmosphere). Afterwards, the cells were treated with rising concentrations of the chalcones, sorafenib and 17-AAG. After 24 h, 48 h and 72 h, respectively, the cells were fixed using 1% glutaraldehyde and stained for 30 min with 0.1% crystal violet. The excess unbound dye was removed by rinsing with water for 30 min. Cells were then lysed by incubation with 0.2% Triton X-100 (Sigma-Aldrich, Darmstadt, Germany) overnight dissolving the bound dye. The extinction of crystal violet was measured at 570 nm using ELISA readers (Dynex Technologies, Denkendorf, Germany; GloMax® Discover Microplate Reader Promega, Madison, WI, USA). IC50 values are given as means ± SD of a minimum of three independent experiments performed in triplicates and more.

[2] = test system: HuH-7; test: Antiproliferative activity, crystal violet assay; format: cell-based; conditions: Homo sapiens, Huh-7, 48 h, mean ± SD
Protocol: as §3, §4

[3] = test system: HepG2; test: Colony formation assay; format: cell-based, Human; conditions: HepG2, 14 days of growth under treatment
Protocol: (§5) Long-term effects of drug treatment on proliferation and clonogenicity were assessed by colony formation assays. HCC cell lines were seeded at 1000 cells/well (HepG2) and 200 cells/well (HuH-7) in 6-well plates and allowed to adhere overnight. […] Untreated cells served as controls. After 14 d, the cells were washed with PBS, fixed with 4% formaldehyde for 1 h and stained with 0.5% crystal violet for 3 min. Excess crystal violet dye was removed by gently rinsing with water. Representative images were taken and stained colonies were counted. A colony was defined as a cell aggregate of 50 or more cells. n = 4 independent experiments were performed and significance was tested by one-way ANOVA assays.

[4] = test system: HuH-7; test: Colony formation assay; format: cell-based, Human; conditions: HuH-7, 14 days of growth under treatment
Protocol: as §5

[5] = test system: HepG2; test: Lactate dehydrogenase (LDH) assay, unspecific cytotoxicity; format: cell-based, Human; conditions: HepG2, 1, 5 and 10 µM, 6 h and 24 h, vs untreated controls
Protocol: (§1) To exclude unspecific compound-induced cytotoxicity as the predominant mode of action a lactate dehydrogenase (LDH) assay was performed using the Cytotoxicity Detection Kit^PLUS LDH (Roche Diagnostics GmbH, Mannheim, Germany, Cat. No. 4744934001) as described earlier. In short, HCC cells were seeded in 96-well plates at 8 × 10^3 cells/well (HepG2) and 10 × 10^3 cells/well (HuH-7). Following incubation overnight, the cells were treated with 246TMP-3SF5 and 17-AAG at final concentrations of 1 µM, 5 µM and 10 µM, respectively, for 6 h and 24 h. The formation of the red-brownish formazan dye, which is formed proportionally to the LDH enzyme activity in the sample, was measured at 490/600 nm using the GloMax® Discover Microplate Reader (Promega, Madison, WI, USA). Unspecific cytotoxicity was determined by measuring the percentage of LDH release into the supernatant of treated cells compared to untreated controls. Measurements were performed in triplicate in n = 3 independent experiments and mean percentage changes ± SEM as compared to controls are shown.

[6] = test system: HuH-7; test: as above; format: cell-based, Human; conditions: HuH-7, 1, 5 and 10 µM, 6 h and 24 h, vs untreated controls
Protocol: as §1

[7] = test system: Hsp90 in HepG2 cells; test: Western blot analysis of Hsp90 expression; format: cell-based, Human; conditions: HepG2, 24 h treatment
Protocol: (§2) Changes in the level of protein expression were assessed through Western blotting. HepG2 and HuH-7 cells were seeded at a density of 1 × 10^6 cells/well in 100 mm petri dishes and incubated until the desired confluency. Drugs were added at given concentrations for 24 h. Untreated cells served as controls. After washing with PBS, the cells were frozen at −20 °C. Subsequently, radioimmunoprecipitation assay (RIPA) buffer mixed with one cOmplete™ Mini Protease Inhibitor tablet/10 mL (Roche Diagnostics GmbH, Mannheim, Germany) was added to lyse the cells. Following these steps, the protein levels were analyzed using the Pierce™ BCA Protein Assay Kit (Thermo Fisher Scientific, Waltham, USA) and protein levels were normalized to ensure equal protein loading of 20 µg/lane. Laemmli buffer and β-mercaptoethanol were added to the probes following denaturation at 96 °C for 10 min. Proteins were separated using SDS–PAGE and electro-transferred to polyvinylidene difluoride (PVDF) membranes. Membranes were blocked in 5% non-fat dry milk in Tris-buffered saline with 0.1% Tween-20 and incubated with primary antibody overnight at 4 °C. […] Blots of n = 3 independent experiments were generated. β-Actin expression served as a loading control and calculated values were normalized to its expression.

[8] = test system: Hsp90 in HuH-7 cells; test: Western blot analysis of Hsp90 expression; format: cell-based, Human; conditions: HuH-7, 24 h treatment
Protocol: as §2

[9] = test system: Hsp70 in HepG2 cells; test: Western blot analysis of Hsp70 expression; format: cell-based, Human; conditions: HepG2, 24 h treatment
Protocol: as §2

[10] = test system: Hsp70 in HuH-7 cells; test: Western blot analysis of Hsp70 expression; format: cell-based, Human; conditions: HuH-7, 24 h treatment
Protocol: as §2

[11] = test system: T. gondii tachyzoites (RH strain); test: Toxoplasma gondii testing assay; format: cell-based; conditions: for IC50: Toxoplasma gondii, T. gondii parasites cultivated in Vero cells; for SI selectivity index (Vero/T. gondii): ratio Vero IC50 / T. gondii IC50
Protocol: Cells of the Vero cell line (ATCC® CCL81™, Manassas, VA, USA) were used to cultivate T. gondii tachyzoites (RH strain, a gift from Dr. Saeed El-Ashram, State Key Laboratory for Agrobiotechnology, China Agricultural University, Beijing, China). Effects of test compounds on T. gondii growth were investigated as published previously and expressed as IC50 values, which were calculated from three independent experiments [63, 89].

[12] = test system: Vero monkey kidney cells; test: Vero cell cytotoxicity (MTT assay); format: cell-based; conditions: Primates
Protocol: (§6) Cytotoxicity to Vero cells or murine macrophages was evaluated using the MTT assay according to previously published articles and expressed as IC50 values which were determined from three independent experiments [63, 91].

[13] = test system: L. major promastigotes; test: Leishmania major testing assay, promastigotes; format: cell-based; conditions: for SI (Promastigotes) selectivity index (macrophages/L. major): ratio macrophages IC50 / promastigotes IC50
Protocol: (§7) Promastigotes (obtained from a patient in 2016) and amastigotes of L. major were applied for drug testing according to previously published methods [63, 90]. IC50 values were calculated from three independent experiments.

[14] = test system: L. major amastigotes; test: Leishmania major testing assay, amastigotes; format: cell-based; conditions: for IC50: Leishmania major; for SI (Amastigotes) selectivity index (macrophages/L. major): ratio macrophages IC50 / amastigotes IC50
Protocol: as §7

[15] = test system: murine macrophages; test: Macrophage cytotoxicity (MTT assay); format: cell-based; conditions: Mus musculus
Protocol: as §6

[16] = test system: T. gondii tachyzoites (RH strain); parameters: method as in PMID 34174635; conditions: positive control; cited from earlier work

Structure (SMILES)	IC50 [1] [µM]	IC50 [2] [µM]	IC50 ([13]; Leishmania major) [µM]	IC50 [14] [µM]	IC50 [13] [µM]	Colony formation (long-term antiproliferative effect, clonogenicity) [3]	Colony formation (long-term antiproliferative effect, clonogenicity) [4]	LDH release (non-specific toxicity) [5]	LDH release (non-specific toxicity) [6]	Hsp90 protein expression level [7]	Hsp90 protein expression level [8]	Hsp70 protein expression level [9]	Hsp70 protein expression level [10]	IC50 [11] [µM]	SI selectivity index (Vero/T. gondii) [11]	IC50 [12] [µM]	SI (Promastigotes) selectivity index (macrophages/L. major) [13]	SI (Amastigotes) selectivity index (macrophages/L. major) [14]	IC50 [15] [µM]	IC50 [16] [µM]
CNC(=O)c1cc(Oc2ccc(NC(=O)Nc3ccc(Cl)c(C(F)(F)F)c3)cc2)ccn1 [Sorafenib, reference compound]	4.4 ± 1	5.4 ± 0.6				colony count did not differ much from the untreated controls	colony count did not differ much from the untreated controls													
COc1ccccc1C(=O)/C=C/c1c2ccccc2cc2ccccc12 [2MeO-Anth]	> 10	> 10	1.8	33.7										9.8	2.3	22.8	26.6	1.5	48.8	
O=C1C(O)=C([C@H]2CC[C@H](c3ccc(Cl)cc3)CC2)C(=O)c2ccccc21 [ATO]																				0.07
COc1ccc(C(=O)/C=C/c2c3ccccc3cc3ccccc23)c(OC)c1 [24DMP-Anth]	> 10	> 10	2.2	28										7.6	2.9	22.3	22.3	1.7	48.3	

Continued, in another order:

IC50 [1] [µM]	IC50 [2] [µM]	IC50 ([13]; Leishmania major) [µM]	IC50 [14] [µM]	IC50 [13] [µM]	Structure (SMILES)	Colony formation (long-term antiproliferative effect, clonogenicity) [3]	Colony formation (long-term antiproliferative effect, clonogenicity) [4]	LDH release (non-specific toxicity) [5]	LDH release (non-specific toxicity) [6]	Hsp90 protein expression level [7]	Hsp90 protein expression level [8]	Hsp70 protein expression level [9]	Hsp70 protein expression level [10]	IC50 [11] [µM]	SI selectivity index (Vero/T. gondii) [11]	IC50 [12] [µM]	SI (Promastigotes) selectivity index (macrophages/L. major) [13]	SI (Amastigotes) selectivity index (macrophages/L. major) [14]	IC50 [15] [µM]	IC50 [16] [µM]
1.3 ± 0.2	2.2 ± 0.3	9.2	20.3		COc1cc(OC)c(C(=O)/C=C/c2cccc(S(F)(F)(F)(F)F)c2)c(OC)c1 [246TMP-3SF5, 2′,4′,6′-trimethoxy-3-pentafluorosulfanylchalcone]	dose-dependent decrease in colonies formed; also recorded: close to no colonies formed	dose-dependent decrease in colonies formed; also recorded: close to no colonies formed	does not significantly increase LDH release	does not significantly increase LDH release	almost no changes	almost no changes	drastically increased	drastically increased	0.42	2.8	1.2	3.5	1.6	32.1	
1.6 ± 0.5	0.4 ± 0.4				C=CCNC1=C2C[C@@H](C)C[C@H](OC)[C@H](O)[C@@H](C)/C=C(\C)[C@H](OC(N)=O)[C@@H](OC)/C=C\C=C(/C)C(=O)NC(=CC1=O)C2=O [17-AAG]	inhibited colony formation significantly; also recorded: close to no colonies formed	inhibited colony formation significantly; also recorded: close to no colonies formed													
> 10	> 10	< 1	18.8	0.73	COc1cc(OC)c(C(=O)/C=C/c2c3ccccc3cc3ccccc23)c(OC)c1 [246TMP-Anth, 2′,4′,6′-trimethoxy-9-anthracenylchalcone]									5.8	3.4	19.6	21.7	0.84	15.8	
> 10	> 10	< 1	28.4	0.86	COc1ccc(C(=O)/C=C/c2cccc([N+](=O)[O-])c2)c(OC)c1 [24DMP-3NO]									2.2	2.4	5.4	29.3	0.89	25.2	
